From publication PMC6874179, “Development of Macrocycle Kinase Inhibitors for ALK2 Using Fibrodysplasia Ossificans Progressiva‐Derived Endothelial Cells” (JBMR Plus, 2019)

How the values were obtained:
caALK1 = biological target: T1, caALK1 (Homo sapiens, UniProt P37023, Q201D); assay: BRE-LUC with constitutive active ALK1 in C2C12 cells; format: cell-based; conditions: compound 0.5μM 16 hours
T1 construct: expressed in transfected cells; host or cells: C2C12 murine myofibroblast cells
Procedure: (§1) Compounds were added for 16 hours at 0.5μM before luciferase activity was measured.
(§2) For luciferase reporter assays, cells were seeded in 24-well plates and transfected with DharmaFECT Duo (Fisher Scientific, Landsmeer, The Netherlands), following the recommendations of the manufacturer. 48 hours after transfection the cells were harvested and lysed. […] Each transfection mixture was equalized with empty vector when necessary and every experiment was performed in triplicate.

caALK6 = assay: BRE-LUC with constitutive active ALK6 in C2C12 cells; format: cell-based; conditions: compound 0.5μM 16 hours
Procedure: as §1, §2

SGK1 = biological target: T2, SGK1 (Homo sapiens, UniProt O00141); assay: Proqinase Kinase profiling; format: biochemical; conditions: read-out: % inhibition at 100nM
T2 construct: purchased DiscoverX

PRKCG = biological target: T3, PRKCG (Homo sapiens, UniProt P05129); assay: Proqinase Kinase profiling; format: biochemical; conditions: read-out: % inhibition at 100nM
T3 construct: purchased DiscoverX

LRRK2 = biological target: T4, LRRK2 (Homo sapiens, UniProt Q5S007); assay: Proqinase Kinase profiling; format: biochemical; conditions: read-out: % inhibition at 100nM
T4 construct: purchased DiscoverX

LCK = biological target: T5, LCK (Homo sapiens, UniProt P06239); assay: Proqinase Kinase profiling; format: biochemical; conditions: read-out: % inhibition at 100nM
T5 construct: purchased DiscoverX

PRKD3 = biological target: T6, PRKD3 (Homo sapiens, UniProt O94806); assay: Proqinase Kinase profiling; format: biochemical; conditions: read-out: % inhibition at 100nM
T6 construct: purchased DiscoverX

PDGFRB = biological target: T7, PDGFRB (Homo sapiens, UniProt P09619); assay: Proqinase Kinase profiling; format: biochemical; conditions: read-out: % inhibition at 100nM
T7 construct: purchased DiscoverX

GCK = biological target: T8, GCK (Homo sapiens, UniProt Q12851); assay: Proqinase Kinase profiling; format: biochemical; conditions: read-out: % inhibition at 100nM
T8 construct: purchased DiscoverX

ALK_R1275Q = biological target: T9, ALK_R1275Q (Homo sapiens, UniProt Q9UM73, R1275Q); assay: Proqinase Kinase profiling; format: biochemical; conditions: read-out: % inhibition at 100nM
T9 construct: purchased DiscoverX

IRAK4 = biological target: T10, IRAK4 (Homo sapiens, UniProt Q9NWZ3); assay: Proqinase Kinase profiling; format: biochemical; conditions: read-out: % inhibition at 100nM
T10 construct: purchased DiscoverX

ALK_L1196M = biological target: T11, ALK_L1196M (Homo sapiens, UniProt Q9UM73, L1196M); assay: Proqinase Kinase profiling; format: biochemical; conditions: read-out: % inhibition at 100nM
T11 construct: purchased DiscoverX

ALK_F1174L = biological target: T12, ALK_F1174L (Homo sapiens, UniProt Q9UM73, F1174L); assay: Proqinase Kinase profiling; format: biochemical; conditions: read-out: % inhibition at 100nM
T12 construct: purchased DiscoverX

CDK7_cyclinH_MAT1 = biological target: T13, CDK7_cyclinH_MAT1 (Homo sapiens, UniProt P50613); assay: Proqinase Kinase profiling; format: biochemical; conditions: read-out: % inhibition at 100nM
T13 construct: purchased DiscoverX

JAK1 = biological target: T14, JAK1 (Homo sapiens, UniProt P23458); assay: Proqinase Kinase profiling; format: biochemical; conditions: read-out: % inhibition at 100nM
T14 construct: purchased DiscoverX

RET_V804M = biological target: T15, RET_V804M (Homo sapiens, UniProt P07949, V804M); assay: Proqinase Kinase profiling; format: biochemical; conditions: read-out: % inhibition at 100nM
T15 construct: purchased DiscoverX

MARK2 = biological target: T16, MARK2 (Homo sapiens, UniProt Q7KZI7); assay: Proqinase Kinase profiling; format: biochemical; conditions: read-out: % inhibition at 100nM
T16 construct: purchased DiscoverX

FLT4 = biological target: T17, FLT4 (Homo sapiens, UniProt P35916); assay: Proqinase Kinase profiling; format: biochemical; conditions: read-out: % inhibition at 100nM
T17 construct: purchased DiscoverX

DDR2_N456S = biological target: T18, DDR2_N456S (Homo sapiens, UniProt Q16832, N456S); assay: Proqinase Kinase profiling; format: biochemical; conditions: read-out: % inhibition at 100nM
T18 construct: purchased DiscoverX

MAP2K4 = biological target: T19, MAP2K4 (Homo sapiens, UniProt P45985); assay: Proqinase Kinase profiling; format: biochemical; conditions: read-out: % inhibition at 100nM
T19 construct: purchased DiscoverX

PKN3 = biological target: T20, PKN3 (Homo sapiens, UniProt Q6P5Z2); assay: Proqinase Kinase profiling; format: biochemical; conditions: read-out: % inhibition at 100nM
T20 construct: purchased DiscoverX

DDR2_T654M = biological target: T21, DDR2_T654M (Homo sapiens, UniProt Q16832, T654M); assay: Proqinase Kinase profiling; format: biochemical; conditions: read-out: % inhibition at 100nM
T21 construct: purchased DiscoverX

CAMK2G = biological target: T22, CAMK2G (Homo sapiens, UniProt Q13555); assay: Proqinase Kinase profiling; format: biochemical; conditions: read-out: % inhibition at 100nM
T22 construct: purchased DiscoverX

TTBK1 = biological target: T23, TTBK1 (Homo sapiens, UniProt Q5TCY1); assay: Proqinase Kinase profiling; format: biochemical; conditions: read-out: % inhibition at 100nM
T23 construct: purchased DiscoverX

CDC7_DBF4 = biological target: T24, CDC7_DBF4 (Homo sapiens, UniProt O00311); assay: Proqinase Kinase profiling; format: biochemical; conditions: read-out: % inhibition at 100nM
T24 construct: purchased DiscoverX

PKMYT1 = biological target: T25, PKMYT1 (Homo sapiens, UniProt Q99640); assay: Proqinase Kinase profiling; format: biochemical; conditions: read-out: % inhibition at 100nM
T25 construct: purchased DiscoverX

VRK2 = biological target: T26, VRK2 (Homo sapiens, UniProt Q86Y07); assay: Proqinase Kinase profiling; format: biochemical; conditions: read-out: % inhibition at 100nM
T26 construct: purchased DiscoverX

TTBK2 = biological target: T27, TTBK2 (Homo sapiens, UniProt Q6IQ55); assay: Proqinase Kinase profiling; format: biochemical; conditions: read-out: % inhibition at 100nM
T27 construct: purchased DiscoverX

MAP2K7 = biological target: T28, MAP2K7 (Homo sapiens, UniProt O14733); assay: Proqinase Kinase profiling; format: biochemical; conditions: read-out: % inhibition at 100nM
T28 construct: purchased DiscoverX

SIK1 = biological target: T29, SIK1 (Homo sapiens, UniProt P57059); assay: Proqinase Kinase profiling; format: biochemical; conditions: read-out: % inhibition at 100nM
T29 construct: purchased DiscoverX

ALK/NPM1 = biological target: T30, ALK/NPM1 (Homo sapiens, UniProt P06748+Q9UM73); assay: Proqinase Kinase profiling; format: biochemical; conditions: read-out: % inhibition at 100nM
T30 construct: purchased DiscoverX

CDK6_cyclinD3 = biological target: T31, CDK6_cyclinD3 (Homo sapiens, UniProt Q00534); assay: Proqinase Kinase profiling; format: biochemical; conditions: read-out: % inhibition at 100nM
T31 construct: purchased DiscoverX

MAP2K5 = biological target: T32, MAP2K5 (Homo sapiens, UniProt Q13163); assay: Proqinase Kinase profiling; format: biochemical; conditions: read-out: % inhibition at 100nM
T32 construct: purchased DiscoverX

BUB1B = biological target: T33, BUB1B (Homo sapiens, UniProt O60566); assay: Proqinase Kinase profiling; format: biochemical; conditions: read-out: % inhibition at 100nM
T33 construct: purchased DiscoverX

MLK4 = biological target: T34, MLK4 (Homo sapiens, UniProt Q5TCX8); assay: Proqinase Kinase profiling; format: biochemical; conditions: read-out: % inhibition at 100nM
T34 construct: purchased DiscoverX

EPHA6 = biological target: T35, EPHA6 (Homo sapiens, UniProt Q9UF33); assay: Proqinase Kinase profiling; format: biochemical; conditions: read-out: % inhibition at 100nM
T35 construct: purchased DiscoverX

BRSK2 = biological target: T36, BRSK2 (Homo sapiens, UniProt Q8IWQ3); assay: Proqinase Kinase profiling; format: biochemical; conditions: read-out: % inhibition at 100nM
T36 construct: purchased DiscoverX

ALK_F1174L/NPM1 = biological target: T37, ALK_F1174L/NPM1 (Homo sapiens, UniProt P06748+Q9UM73, F1174L); assay: Proqinase Kinase profiling; format: biochemical; conditions: read-out: % inhibition at 100nM
T37 construct: purchased DiscoverX

T9 sequence (Q9UM73 19-1620 R1275Q): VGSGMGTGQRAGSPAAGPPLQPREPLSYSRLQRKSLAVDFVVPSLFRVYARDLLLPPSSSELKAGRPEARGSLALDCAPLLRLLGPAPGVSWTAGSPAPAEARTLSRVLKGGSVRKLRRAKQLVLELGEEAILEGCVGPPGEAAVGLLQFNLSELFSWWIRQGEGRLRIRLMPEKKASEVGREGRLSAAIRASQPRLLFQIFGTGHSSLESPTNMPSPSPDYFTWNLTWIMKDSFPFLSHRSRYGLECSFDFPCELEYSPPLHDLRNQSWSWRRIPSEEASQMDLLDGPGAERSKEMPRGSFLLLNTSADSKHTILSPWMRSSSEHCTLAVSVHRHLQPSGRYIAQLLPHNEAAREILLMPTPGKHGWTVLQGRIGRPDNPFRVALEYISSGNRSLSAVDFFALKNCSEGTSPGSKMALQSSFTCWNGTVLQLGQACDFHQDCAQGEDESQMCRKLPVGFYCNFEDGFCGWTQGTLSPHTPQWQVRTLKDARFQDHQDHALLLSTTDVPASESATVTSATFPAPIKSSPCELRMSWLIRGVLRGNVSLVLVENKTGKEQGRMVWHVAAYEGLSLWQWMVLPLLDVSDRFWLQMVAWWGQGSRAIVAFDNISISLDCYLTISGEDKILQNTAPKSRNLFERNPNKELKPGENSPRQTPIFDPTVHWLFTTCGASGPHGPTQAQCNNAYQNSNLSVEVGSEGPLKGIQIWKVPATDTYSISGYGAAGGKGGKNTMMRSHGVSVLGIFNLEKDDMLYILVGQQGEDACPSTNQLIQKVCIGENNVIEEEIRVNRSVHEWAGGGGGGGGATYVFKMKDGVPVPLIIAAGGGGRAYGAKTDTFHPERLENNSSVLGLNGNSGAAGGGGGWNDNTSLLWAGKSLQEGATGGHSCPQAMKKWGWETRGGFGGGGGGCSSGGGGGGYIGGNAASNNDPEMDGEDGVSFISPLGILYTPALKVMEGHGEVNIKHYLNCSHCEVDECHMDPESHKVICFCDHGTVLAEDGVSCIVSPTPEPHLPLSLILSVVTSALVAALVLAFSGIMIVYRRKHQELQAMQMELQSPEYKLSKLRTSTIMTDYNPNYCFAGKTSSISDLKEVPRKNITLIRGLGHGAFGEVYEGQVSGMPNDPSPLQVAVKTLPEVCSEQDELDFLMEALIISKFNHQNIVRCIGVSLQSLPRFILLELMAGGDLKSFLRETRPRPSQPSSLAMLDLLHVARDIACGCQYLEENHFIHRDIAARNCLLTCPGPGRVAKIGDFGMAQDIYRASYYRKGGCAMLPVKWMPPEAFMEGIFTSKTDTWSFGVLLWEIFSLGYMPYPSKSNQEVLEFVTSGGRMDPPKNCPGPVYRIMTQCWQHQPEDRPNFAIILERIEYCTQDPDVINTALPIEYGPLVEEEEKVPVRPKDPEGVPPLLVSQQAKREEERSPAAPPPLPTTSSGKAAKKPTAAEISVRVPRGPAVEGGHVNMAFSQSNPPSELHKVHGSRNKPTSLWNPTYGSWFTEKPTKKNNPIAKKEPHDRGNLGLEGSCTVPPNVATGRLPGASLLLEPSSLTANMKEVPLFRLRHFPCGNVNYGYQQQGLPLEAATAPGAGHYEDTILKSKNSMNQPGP
T12 sequence (Q9UM73 19-1620 F1174L): as the sequence (Q9UM73 19-1620 R1275Q) above, with F1156L, Q1257R counted along it
T7 sequence (P09619 33-1106): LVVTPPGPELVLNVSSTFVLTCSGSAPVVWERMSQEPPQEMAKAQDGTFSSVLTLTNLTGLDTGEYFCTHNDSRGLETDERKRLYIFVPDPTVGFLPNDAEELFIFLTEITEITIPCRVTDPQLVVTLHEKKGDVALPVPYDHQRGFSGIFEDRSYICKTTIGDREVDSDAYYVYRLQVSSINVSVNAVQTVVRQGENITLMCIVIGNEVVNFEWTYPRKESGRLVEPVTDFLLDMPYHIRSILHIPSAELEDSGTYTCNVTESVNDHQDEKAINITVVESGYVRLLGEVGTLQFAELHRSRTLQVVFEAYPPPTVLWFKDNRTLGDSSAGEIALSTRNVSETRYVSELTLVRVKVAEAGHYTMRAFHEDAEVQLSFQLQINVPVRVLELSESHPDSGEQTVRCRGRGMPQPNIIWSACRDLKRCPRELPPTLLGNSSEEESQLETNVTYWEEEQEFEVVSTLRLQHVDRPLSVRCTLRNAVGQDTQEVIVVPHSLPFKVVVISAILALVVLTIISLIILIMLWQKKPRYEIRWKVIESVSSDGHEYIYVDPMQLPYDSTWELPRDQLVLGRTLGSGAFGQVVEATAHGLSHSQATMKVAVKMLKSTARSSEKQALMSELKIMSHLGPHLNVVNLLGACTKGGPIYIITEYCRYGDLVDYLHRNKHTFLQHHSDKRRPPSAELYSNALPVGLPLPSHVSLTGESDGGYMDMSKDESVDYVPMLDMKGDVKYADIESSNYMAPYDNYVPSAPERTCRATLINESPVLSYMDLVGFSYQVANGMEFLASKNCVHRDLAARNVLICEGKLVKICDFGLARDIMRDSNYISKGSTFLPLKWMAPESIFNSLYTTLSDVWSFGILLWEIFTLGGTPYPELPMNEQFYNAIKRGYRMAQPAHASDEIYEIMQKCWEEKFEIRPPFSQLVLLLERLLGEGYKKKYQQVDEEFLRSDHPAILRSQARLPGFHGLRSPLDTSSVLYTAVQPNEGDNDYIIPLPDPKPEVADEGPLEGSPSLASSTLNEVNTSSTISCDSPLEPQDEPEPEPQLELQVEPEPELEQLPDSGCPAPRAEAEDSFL
T17 sequence (P35916 25-1363): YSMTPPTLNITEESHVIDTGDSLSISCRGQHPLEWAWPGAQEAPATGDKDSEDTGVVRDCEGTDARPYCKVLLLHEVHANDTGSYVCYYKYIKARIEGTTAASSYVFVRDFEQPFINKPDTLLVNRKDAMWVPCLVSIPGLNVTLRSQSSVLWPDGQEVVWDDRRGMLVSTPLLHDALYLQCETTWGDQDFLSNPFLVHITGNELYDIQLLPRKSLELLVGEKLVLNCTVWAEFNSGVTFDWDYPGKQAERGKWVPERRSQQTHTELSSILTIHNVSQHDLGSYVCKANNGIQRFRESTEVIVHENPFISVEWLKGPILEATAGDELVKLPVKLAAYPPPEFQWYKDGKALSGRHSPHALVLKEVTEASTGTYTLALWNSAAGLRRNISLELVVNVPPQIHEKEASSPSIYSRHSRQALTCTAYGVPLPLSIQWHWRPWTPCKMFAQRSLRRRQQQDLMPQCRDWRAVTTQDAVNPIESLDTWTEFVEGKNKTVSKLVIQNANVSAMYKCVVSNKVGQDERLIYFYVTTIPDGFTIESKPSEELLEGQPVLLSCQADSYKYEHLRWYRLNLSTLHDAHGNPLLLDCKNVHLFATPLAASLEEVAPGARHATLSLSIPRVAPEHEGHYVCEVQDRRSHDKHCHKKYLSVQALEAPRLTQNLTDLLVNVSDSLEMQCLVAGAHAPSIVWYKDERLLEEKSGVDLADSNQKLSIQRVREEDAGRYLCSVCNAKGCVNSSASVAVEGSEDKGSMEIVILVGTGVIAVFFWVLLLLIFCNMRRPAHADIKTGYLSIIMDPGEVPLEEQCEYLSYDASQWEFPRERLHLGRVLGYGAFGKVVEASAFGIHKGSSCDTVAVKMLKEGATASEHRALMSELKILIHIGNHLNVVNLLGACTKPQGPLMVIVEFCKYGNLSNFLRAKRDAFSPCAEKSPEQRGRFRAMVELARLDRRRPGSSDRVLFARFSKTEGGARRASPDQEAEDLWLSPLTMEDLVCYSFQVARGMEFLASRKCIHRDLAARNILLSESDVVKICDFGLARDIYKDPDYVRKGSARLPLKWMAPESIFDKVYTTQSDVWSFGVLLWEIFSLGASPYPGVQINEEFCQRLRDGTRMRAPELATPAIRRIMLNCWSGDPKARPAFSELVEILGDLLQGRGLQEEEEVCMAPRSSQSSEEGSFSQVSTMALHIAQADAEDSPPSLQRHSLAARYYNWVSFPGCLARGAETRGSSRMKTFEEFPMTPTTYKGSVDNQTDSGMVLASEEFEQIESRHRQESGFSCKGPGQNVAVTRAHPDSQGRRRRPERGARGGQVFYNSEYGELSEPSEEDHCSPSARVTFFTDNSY
T5 sequence (P06239 whole entry): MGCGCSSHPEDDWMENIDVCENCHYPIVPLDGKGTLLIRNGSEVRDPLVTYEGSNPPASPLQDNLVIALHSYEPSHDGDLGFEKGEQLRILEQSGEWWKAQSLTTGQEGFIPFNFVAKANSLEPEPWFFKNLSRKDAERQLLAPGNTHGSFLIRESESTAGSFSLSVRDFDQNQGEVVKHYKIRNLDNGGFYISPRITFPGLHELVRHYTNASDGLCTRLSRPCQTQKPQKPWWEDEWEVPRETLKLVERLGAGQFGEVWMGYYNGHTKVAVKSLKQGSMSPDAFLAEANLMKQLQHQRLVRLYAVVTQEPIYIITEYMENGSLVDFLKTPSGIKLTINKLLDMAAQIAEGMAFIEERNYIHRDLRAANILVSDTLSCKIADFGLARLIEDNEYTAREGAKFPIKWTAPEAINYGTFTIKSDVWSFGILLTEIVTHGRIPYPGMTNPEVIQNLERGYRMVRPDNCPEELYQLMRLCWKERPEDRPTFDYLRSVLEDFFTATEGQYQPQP
T2 sequence (O00141 whole entry): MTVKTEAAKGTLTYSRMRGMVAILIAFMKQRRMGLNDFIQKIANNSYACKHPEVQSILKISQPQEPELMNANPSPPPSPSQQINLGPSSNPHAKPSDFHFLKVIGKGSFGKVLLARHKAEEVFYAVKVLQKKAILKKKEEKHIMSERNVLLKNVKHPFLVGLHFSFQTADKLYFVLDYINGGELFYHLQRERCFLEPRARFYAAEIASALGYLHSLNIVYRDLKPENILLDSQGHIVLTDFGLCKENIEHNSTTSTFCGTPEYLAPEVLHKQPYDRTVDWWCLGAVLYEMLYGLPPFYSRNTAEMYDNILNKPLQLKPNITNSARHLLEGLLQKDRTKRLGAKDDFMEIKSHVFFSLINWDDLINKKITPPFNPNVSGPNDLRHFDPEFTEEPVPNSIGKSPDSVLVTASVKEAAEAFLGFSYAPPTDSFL
T11 sequence (Q9UM73 19-1620 L1196M): as the sequence (Q9UM73 19-1620 R1275Q) above, with L1178M, Q1257R counted along it

Row | Compound | inhibition at 0.1 µM (SGK1) | inhibition at 0.1 µM (PRKCG) | inhibition at 0.1 µM (LRRK2) | inhibition at 0.1 µM (LCK) | inhibition at 0.1 µM (PRKD3) | inhibition at 0.1 µM (PDGFRB) | inhibition at 0.1 µM (GCK) | inhibition at 0.1 µM (ALK_R1275Q) | inhibition at 0.1 µM (IRAK4) | inhibition at 0.1 µM (ALK_L1196M) | inhibition at 0.1 µM (ALK_F1174L) | inhibition at 0.1 µM (CDK7_cyclinH_MAT1) | inhibition at 0.1 µM (JAK1) | inhibition at 0.1 µM (RET_V804M) | inhibition at 0.1 µM (MARK2) | inhibition at 0.1 µM (FLT4) | other results
1 | c1ccc2c(-c3cnn4cc(-c5ccc(N6CCNCC6)cc5)cnc34)ccnc2c1 [LDN-193189, reference compound] | – | – | – | – | – | – | – | – | – | – | – | – | – | – | – | – | Inhibition of caALK1-driven BRE-LUC activity (caALK1): significantly inhibited; Inhibition of caALK6-driven BRE-LUC activity (caALK6): significantly inhibited
2 | Clc1cc2cc(c1)-c1cnn3ccc(nc13)NCCOCCO2 [OD36] | 16% | 16% | 53% | 48% | 2% | 57% | 35% | 6% | 13% | -7% | 8% | 0% | 18% | 5% | 11% | 44% | –
3 | Cc1cc2cc(c1)-c1cnn3ccc(nc13)NCCNC(=O)CCN(C)C2 [OD52] | 22% | 11% | 10% | 4% | 4% | 3% | 1% | -1% | -2% | -6% | -6% | -6% | -6% | -6% | -9% | -13% | inhibition at 0.1 µM (DDR2_N456S): 33%; inhibition at 0.1 µM (MAP2K4): 17%; inhibition at 0.1 µM (PKN3): 16%; inhibition at 0.1 µM (DDR2_T654M): 15%; inhibition at 0.1 µM (CAMK2G): 10%; inhibition at 0.1 µM (TTBK1): 8%; inhibition at 0.1 µM (CDC7_DBF4): 6%; inhibition at 0.1 µM (PKMYT1): 6%; inhibition at 0.1 µM (VRK2): 6%; inhibition at 0.1 µM (TTBK2): 4%; inhibition at 0.1 µM (MAP2K7): 4%; inhibition at 0.1 µM (SIK1): -2%; inhibition at 0.1 µM (ALK/NPM1): -5%; inhibition at 0.1 µM (CDK6_cyclinD3): -7%; inhibition at 0.1 µM (MAP2K5): -9%; inhibition at 0.1 µM (BUB1B): -10%; inhibition at 0.1 µM (MLK4): -11%; inhibition at 0.1 µM (EPHA6): -12%; inhibition at 0.1 µM (BRSK2): -13%; inhibition at 0.1 µM (ALK_F1174L/NPM1): -16%
